From patent US10272056B2, “Treatment for mitochondrial diseases” (The George Washington University a Congressionally …, priority 2015, dated 2019)

System: healthy and MELAS fibroblasts
Assay: Dose-dependent studies for optimal safe concentrations
Type: cell-based, human
Conditions: three days of treatment
Text: Experimental approaches. Five distinct molecular tools were used to investigate mitochondrial biogenesis: 1) the mitochondrial-specific dyes, MitoTracker® Green (MTG) and MitoTracker® Red (MTR); 2) the mito-GFP or mito-dsRed vector to fluorescently label mitochondria; 3) antibodies against mtDNA, COXVα, or SOD2; 4) the fluorescent PicoGreen® dye labeling mtDNA; and 5) quantitative PCR to determine mtDNA copy number.
Butyrates rescue the mitochondrial mass, morphology, networking, membrane potential, and cellular ATP levels in MELAS fibroblasts. Skin fibroblasts from two MELAS patients and from a healthy subject as a control were used. Dose-dependent analyses of butyrates to determine their best concentrations for eliciting an optimal mitochondrial response without cellular toxicity was performed. Healthy and MELAS fibroblasts were treated with PBS, NaBt (2.5 mM), TBN (1.5 mM), or AN9 (300 μM) for three days before labeling with the MTG dye for live cell confocal analysis.

CCCC(=O)[O-].[Na+] [NaBt, sodium butyrate]
optimal safe concentration for eliciting maximal mitochondrial biogenesis without cellular toxicity: 2.5 mM
